From PMC10070635, “Targeting Enterococcus faecalis HMG-CoA reductase with a non-statin inhibitor” (Communications Biology, 2023) come the findings set out here.

Experiment [1] has as its target T1, Enterococcus faecalis HMG-CoA reductase (efHMGR) (Enterococcus faecalis, UniProt A0A4U3MLJ4).
T1 construct: gene EY666_03235; C-terminal domain (residues 381-803) of the mvaE gene product, N-terminal 6X-His tag
The experiment can be described thus: X-ray co-crystal structure ([…] Å). The format is binding.

For experiment [2], the target named is T1, Enterococcus faecalis HMG-CoA reductase (efHMGR). The experiment can be described thus: X-ray co-crystal structure ([…] Å); mevalonate oxidation enzyme assay with Ki (IC50 […]). The experiment is classed as biochemical.
Experiment [3] shares this target. The experiment can be described thus: mevalonate oxidation assay, NADPH absorbance at […] nm; […] inhibition at […]. The experiment is classed as biochemical.
The target is the same in experiment [4]. The experiment can be described thus: X-ray crystal structure ([…] Å). The format is binding.

`CC(C)(COP(=O)(O)OP(=O)(O)OC[C@H]1O[C@@H](n2cnc3c(N)ncnc32)[C@H](O)[C@@H]1OP(=O)(O)O)[C@@H](O)C(=O)NCCC(=O)NCCSC(=O)C[C@@](C)(O)CC(=O)O` [HMG-CoA]: the “X-ray co-crystal structure (2.27 Å)” value in experiment [1] was “HMG-CoA binds to the large domain of one monomer and NADP^+ to small domain of the other monomer”.
On to `CCCCc1ccc(NS(=O)(=O)c2ccc(O)c(C(=O)O)c2)cc1` [compound 315, 5-{[(4-butylphenyl)amino]sulfonyl}-2-hydroxybenzoic acid], for which the Ki in experiment [2] stood at 2000 nM.
Consider `NC(=O)c1ccc[n+]([C@@H]2O[C@H](COP(=O)(O)OP(=O)(O)OC[C@H]3O[C@@H](n4cnc5c(N)ncnc54)[C@H](OP(=O)(O)O)[C@@H]3O)[C@@H](O)[C@H]2O)c1` [NADP+], for which the “X-ray co-crystal structure (2.27 Å)” value in experiment [1] is “NADP^+ is present in all the active sites and HMG-CoA in only one”.
On to `CC[C@H](C)C(=O)O[C@H]1C[C@@H](C)C=C2C=C[C@H](C)[C@H](CC[C@@H]3C[C@@H](O)CC(=O)O3)[C@H]21` [lovastatin], for which, in experiment [3], the inhibition at 50 µM amounted to 32%.
`C[C@@](O)(CCO)CC(=O)O` [mevalonate]: the “X-ray crystal structure (2.27 Å)” value in experiment [4] was “Density consistent with mevalonate is also found in one of the active sites”.

The Ki is the equilibrium dissociation constant of an inhibitor or competing ligand from its target. As a reminder, the inhibition is how much of the control response was suppressed.
